Measurements: patent US11273166B2, “Methods and compositions for the treatment of obesity” (Monash University, priority 2017, dated 2022)

What was measured:
[1] = molecular target: T1, TCPTP in the arcuate nucleus of the hypothalamus (Mus musculus, UniProt Q06180); assay: Celastrol i.p. for 10 days in high fat fed Ptpn2fl/fl mice, rAAV-Cre-eGFP vs rAAV-eGFP in ARC; type: in vivo; details: mice lacking TCPTP in the ARC; 20 ug/ml i.p., 10 consecutive days
T1 construct: endogenous in cells; host or cells: arcuate nucleus of the hypothalamus of living high fat fed Ptpn2fl/fl mice
T1 sequence (Q06180 1-406): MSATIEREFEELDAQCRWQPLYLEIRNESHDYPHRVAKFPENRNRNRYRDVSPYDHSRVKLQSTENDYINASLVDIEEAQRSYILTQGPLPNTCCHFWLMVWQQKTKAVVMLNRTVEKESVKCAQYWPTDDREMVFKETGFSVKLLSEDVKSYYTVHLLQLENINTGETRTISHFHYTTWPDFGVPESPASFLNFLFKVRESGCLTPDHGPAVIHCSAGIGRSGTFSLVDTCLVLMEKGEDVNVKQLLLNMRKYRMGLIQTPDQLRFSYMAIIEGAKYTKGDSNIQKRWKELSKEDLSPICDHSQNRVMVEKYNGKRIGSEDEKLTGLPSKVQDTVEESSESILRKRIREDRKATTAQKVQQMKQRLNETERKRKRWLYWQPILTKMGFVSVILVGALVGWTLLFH
Protocol: (§1) 12-week high fat fed Ptpn2^fl/fl male mice were bilateral injected with rAAV-eGFP or rAAV-Cre-eGFP into the arcuate nucleus of the hypothalamus (ARC). Two-week post AAV administration mice received Celastrol (20 ug/ml, i.p.) for 10 consecutive days and effects on a-b) Body weights, b-c) food intake, e-f) adiposity and lean mass (EchoMRI) was determined.

[2] = molecular target: T2, PTP1B in the arcuate nucleus of the hypothalamus (Mus musculus, UniProt P35821); assay: Celastrol i.p. for 10 days in high fat fed Ptpn1fl/fl mice, rAAV-Cre-eGFP vs rAAV-eGFP in ARC; type: in vivo; details: mice lacking PTP1B in the ARC; 20 μg/ml i.p., 10 consecutive days
T2 construct: endogenous in cells; host or cells: arcuate nucleus of the hypothalamus of living high fat fed Ptpn1fl/fl mice
T2 sequence (P35821 1-432): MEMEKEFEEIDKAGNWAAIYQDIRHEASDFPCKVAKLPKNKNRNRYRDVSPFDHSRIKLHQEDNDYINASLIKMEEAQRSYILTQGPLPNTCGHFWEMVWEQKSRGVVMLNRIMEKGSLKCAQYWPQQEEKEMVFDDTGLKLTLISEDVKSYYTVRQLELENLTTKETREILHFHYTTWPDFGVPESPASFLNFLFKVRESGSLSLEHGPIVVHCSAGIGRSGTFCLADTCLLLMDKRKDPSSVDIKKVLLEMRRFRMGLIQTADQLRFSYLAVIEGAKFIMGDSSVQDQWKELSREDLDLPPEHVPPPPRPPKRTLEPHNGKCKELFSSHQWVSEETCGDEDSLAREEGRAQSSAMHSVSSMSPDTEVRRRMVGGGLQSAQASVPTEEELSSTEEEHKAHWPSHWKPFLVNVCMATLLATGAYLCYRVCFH
Protocol: as §1, with “FIG. 30. […] 12-week” for “12-week”, “Ptpn1^fl/fl” for “Ptpn2^fl/fl”, “μg/ml,” for “ug/ml,”, “c-d)” for “b-c)”

[3] = system: PTP1B and TCPTP in the arcuate nucleus of the hypothalamus; assay: Celastrol i.p. for 10 days in high fat fed Ptpn1fl/fl: Ptpn2fl/fl mice, rAAV-Cre-eGFP vs rAAV-eGFP in ARC; type: in vivo, mouse; details: mice lacking PTP1B and TCPTP in the ARC; 20 μg/ml i.p., 10 consecutive days
Protocol: FIG. 28 The ability of celastrol to promote weight loss in obese mice is abrogated in mice lacking PTP1B and TCPTP in the arcuate nucleus of the hypothalamus. 12-week high fat fed Ptpn1^fl/fl: Ptpn2^fl/fl male mice were bilateral injected with rAAV-eGFP or rAAV-Cre-eGFP into the arcuate nucleus of the hypothalamus (ARC). Two-week post AAV administration mice received Celastrol (20 μg/ml, i.p.) for 10 consecutive days and effects on a) Body weights, b) food intake, c-d) adiposity and lean mass (EchoMRI) was determined

`CC1=C(O)C(=O)C=C2C1=CC=C1[C@@]2(C)CC[C@@]2(C)[C@@H]3C[C@](C)(C(=O)O)CC[C@]3(C)CC[C@]12C` [celastrol] was tested, and the “ability to promote weight loss in obese mice” value (from here on “ability to promote weight loss”) [1] was “partially attenuated”, the “ability to promote weight loss” value [2] was “partially attenuated” and the “ability to promote weight loss” value [3] was “abrogated”.
